Reference: US8841277B2, “Methods for treating non-small cell lung cancer using 5-azacytidine” (Celgene Corporation, priority 2009, dated 2014)
Entries after “also recorded” stand apart in the source; their conditions may differ.

Assays:
[1] = system: NSCLC cell lines; test: Cell viability dose-response profiles, all cell lines; type: cell-based; settings: 72 hours; dose range
Description: Certain NSCLC cell lines (H460, H1299, A549, and H1975) were purchased from American Type Culture Collection (ATCC; Manassas, Va.). The H23NSCLC cell line was obtained from the National Cancer Institute (NCI; Bethesda, Md.). Cell lines were cultured in their respective media, as recommended by ATCC and NCI. AZA was manufactured at Aptuit (Greenwich, Conn.) for Celgene (Summit, N.J.), while DAC was purchased from Sigma-Aldrich (St. Louis, Mo.). In all experiments, cells were seeded 24 hours before drug treatment and incubated at 37° C./5% CO2, For cell viability assays, H460, H1299, A549, H23, and H1975 cells were seeded in triplicate at 1×10^3, 1×10^3, 1×10^3, 4×10^3, and 4×10^3 cells per well, respectively, in 96-well plates, using 200 μL of medium per well. Fresh drug was added every 24 hours by replacing medium with drug-containing medium. […]
Cell viability was assessed using the CyQuant assay (Life Technologies Corporation; Carlsbad, Calif.). Fluorescence was measured with a spectrophotometer (Molecular Devices; Sunnyvale, Calif.), and EC50 values were calculated in Prism® version 5.01 (GraphPad Software, Inc.; La Jolla, Calif.), using results from three independent experiments.
The six data sets represent calculations of EC50 values from raw data using Prism®. The standard deviation among the three independent experiments was determined at each drug concentration. […]

[2] = system: H460 cells; test: Cell cycle distribution (NIM-DAPI), H460; type: cell-based
From the text: These studies examined the cell cycle distribution of NSCLC cells treated with AZA or DAC using NIM-DAPI analysis.
For cell cycle distribution, cells were stained with the NIM-DAPI reagent (Beckman Coulter, Inc.; Fullerton, Calif.). For measurement of early- and late-apoptotic cell populations, cells were stained with AnnexinV-FITC and 7-AAD reagents (Beckman Coulter, Inc.). Samples were processed according to manufacturer's instructions and analyzed on a Cell Lab Quanta MPL flow cytometer (Beckman Coulter, Inc.). […] Data were also collected for untreated cells as control.

[3] = system: LINE-1 elements in A549 cells; test: LINE-1 Methylation Assay, A549; type: cell-based; settings: for DNA hypomethylation (LINE-1 methylation): 48 hours or 72 hours
Description: Genomic DNA was purified from cells using the DNeasy Blood and Tissue Kit (Qiagen; Valencia, Calif.), according to the manufacturer's instructions. DNA yield was quantitated with a NanoDrop 8000 spectrophotometer (Thermo Fisher Scientific, Inc.). DNAs (1 μg/sample) were submitted to EpigenDx (Worcester, Mass.) for bisulfate conversion and pyrosequencing of LINE-1 elements. Briefly, 1 μg of DNA was bisulfite-treated using the Zymo DNA Methylation Kit (Zymo Research; Orange, Calif.) and eluted in 10 μL volume. DNA eluate (1 μL) was used for PCR with biotinylated primers to the LINE-1 locus, converting the PCR product to single-stranded DNA templates. PCR products (each 10 μL) were sequenced by Pyrosequencing PSQ96 HS System (Biotage AB), following the manufacturer's instructions (Biotage; Kungsgatan, Sweden). The methylation status of each locus was analyzed individually as a T/C SNP using QCpG software (Biotage). Percent LINE-1 methylation represents the average percent methylation of four CpG sites in duplicate samples.
At the highest drug concentration tested (3 μM), LINE-1 methylation was less affected, possibly due to reduced drug incorporation as a result of inhibited cell proliferation.

[4] = system: DNMT1; test: DNMT1 protein depletion, A549; type: cell-based; settings: for DNMT1 protein levels: dose range
Description: For western analyses of protein levels, cells were washed with PBS and lysed with RIPA buffer (Cell Signaling Technology, Inc.; Danvers, Mass.) containing 350 mM NaCl and 0.1% SDS. Cell lysates were sonicated with two 5-second bursts under low amplitude (20%) using the Digital Sonic Dismembrator (Thermo Fisher Scientific, Inc.; Waltham, Mass.). Proteins were separated on 4-12% Bis-Tris NuPAGE gels (Life Technologies Corporation) and transferred to nitrocellulose membranes. DNMT1, phos-Histone-H2AX(Ser139), total Histone-H2AX, cleaved-PARP, p21, p53, and alpha-tubulin were detected using the Li-Cor Odyssey imaging system (Li-Cor Biotechnology; Lincoln, Nebr.), following incubation with the appropriate primary and secondary antibodies. The phos-Histone-H2AX(Ser139), cleaved-PARP, and p21 antibodies were from Cell Signaling Technology, Inc. The p53 and total Histone-H2AX (C-20) antibodies were from Santa Cruz Biotechnology, Inc. (Santa Cruz, Calif.). The alpha-tubulin and DNMT1 antibodies were purchased from EMD Chemicals, Inc. (Gibbstown, N.J.) and Abcam, Inc. (Cambridge, Mass.), respectively. The goat anti-Rabbit IRDye 680, goat anti-Mouse IRDye 800CW, and donkey anti-Goat IRDye 800CW secondary antibodies were from Li-Cor Biotechnology.
Reduced DNMT1 levels were detected in these cell lines as early as 4 hours after drug treatment (FIG. 17).

[5] = system: MDS, AML, CML, ALL, NHL; settings: e.g. treatment of MDS, Aparicio et al. 2002; cited from earlier work

| SMILES | Viability profile at high doses [1] | Cell cycle distribution (NIM DAPI) ([2]; 30-hour treatment, 0.3-10 μM) | Cell cycle distribution (NIM DAPI) ([2]; 60-hour treatment, 0.3-10 μM) | Cell cycle distribution (NIM DAPI) ([2]; summary of studies) | Concentration of peak hypomethylation (LINE-1) ([3]; 48 or 72 hours) | Potency in decreasing LINE-1 methylation relative to AZA ([3]; 48 or 72 hours) | DNA hypomethylation (LINE-1 methylation) [3] | DNMT1 depletion ([4]; 0.3-10 μM, 24 h and 48 h (Example 5)) | Relative potency in reducing DNMT1 levels ([4]; 20 hours) | Concentration of maximal reduction of DNMT1 levels ([4]; 20 hours, lowest concentration tested) [µM] | DNMT1 protein levels ([4]; 20 hours) | Anti-tumor activity in clinical trials [5] |
| --- | --- | --- | --- | --- | --- | --- | --- | --- | --- | --- | --- | --- |
| Nc1ncn([C@H]2C[C@H](O)[C@@H](CO)O2)c(=O)n1 [DAC, 5-aza-2′-deoxycytidine] | cytostatic activity at high doses | induced accumulation of cells in Sub-G1 | slight increase in Sub-G1 | induced accumulation of cells in Sub-G1 | 0.1 μM | 3- to 10 fold | induced DNA hypomethylation; also recorded: caused a decrease in LINE-1 methylation | able to cause DNMT1 depletion | more potent than AZA | 0.05 | significantly reduced | significant anti-tumor activity |
| Nc1ncn([C@@H]2O[C@H](CO)[C@@H](O)[C@H]2O)c(=O)n1 [AZA, 4-amino-1-β-D-ribofuranosyl-1,3,5-triazin-2(1H)-one] | cytotoxic activities at high doses | induced accumulation of cells in Sub-G1 | decrease of cells in G0/G1 with a concomitant increase of cells in Sub-01 | induced accumulation of cells in Sub-G1 | 0.3-1 μM |  | induced DNA hypomethylation; also recorded: caused a decrease in LINE-1 methylation |  |  |  | significantly reduced | significant anti-tumor activity |
